In patent publication US20060069132A1, “Azolecarboxamide herbicides” (priority 2004, published 2006):

Columns and labels:
barnyardgrass [1] = assay: Test A pre-/postemergence herbicide test; assay type: in vivo, Echinochloa crus-galli
In short: (§1)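 Plants are held in greenhouse about ten days after treatment, then compared with untreated controls and scored 0 (no effect) to 100 (complete control). Preemergence dosing is a directed soil spray on sown sandy loam; postemergence dosing is spray to runoff at 2–10 cm height.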

large crabgrass [2] = assay: Test A pre-/postemergence herbicide test; assay type: in vivo, Digitaria sanguinalis
In short: as §1

giant foxtail [3] = assay: Test A pre-/postemergence herbicide test; assay type: in vivo, Setaria faberi
In short: as §1

morningglory [4] = assay: Test A pre-/postemergence herbicide test; assay type: in vivo, Ipomoea spp.
In short: as §1

redroot pigweed = assay: Test A pre-/postemergence herbicide test; assay type: in vivo, Amaranthus retroflexus
In short: as §1

velvetleaf [5] = assay: Test A pre-/postemergence herbicide test; assay type: in vivo, Abutilon theophrasti
In short: as §1

barnyardgrass [6] = assay: Test B pre-/postemergence herbicide test; assay type: in vivo, Echinochloa crus-galli
In short: (§2)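 Species tested were Echinochloa crus-galli, Ipomoea coccinea, Xanthium strumarium and Oryza sativa, treated both before emergence and at the 1- to 4-leaf stage; rice and barnyardgrass were also tested under flooding at 2 leaves. Greenhouse incubation lasted 13–15 days before visual 0–100 scoring.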

Surinam grass = assay: Test B pre-/postemergence herbicide test; assay type: in vivo, Urochloa decumbens
In short: (§3)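 Test chemicals in a non-phytotoxic solvent mixture with surfactant were applied preemergence to seeded species and postemergence to plants 2-18 cm tall (1- to 4-leaf stage); rice and barnyardgrass were also tested in a flooded paddy at the 2-leaf stage. Visual rating versus controls after 13-15 days in greenhouse, scale 0 (no effect) to 100 (complete control).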

cocklebur = assay: Test B pre-/postemergence herbicide test; assay type: in vivo, Xanthium strumarium
In short: as §2

corn = assay: Test B pre-/postemergence herbicide test; assay type: in vivo, Zea mays
In short: as §3

large crabgrass [7] = assay: Test B pre-/postemergence herbicide test; assay type: in vivo, Digitaria sanguinalis
In short: as §3

giant foxtail [8] = assay: Test B pre-/postemergence herbicide test; assay type: in vivo, Setaria faberi
In short: as §3

lambsquarters = assay: Test B pre-/postemergence herbicide test; assay type: in vivo, Chenopodium album
In short: as §3

morningglory [9] = assay: Test B pre-/postemergence herbicide test; assay type: in vivo, Ipomoea coccinea
In short: as §2

pigweed = assay: Test B pre-/postemergence herbicide test; assay type: in vivo, Amaranthus retroflexus
In short: as §3

rice [10] = assay: Test B pre-/postemergence herbicide test; assay type: in vivo, Oryza sativa; details: preemergence
In short: as §3

velvetleaf [11] = assay: Test B pre-/postemergence herbicide test; assay type: in vivo, Abutilon theophrasti
In short: as §3

blackgrass = assay: Test B postemergence herbicide test; assay type: in vivo, Alopecurus myosuroides; details: scale 0 (no effect) to 100 (complete control)
In short: (§4)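 Plants grow to 1- to 4-leaf stage (2–18 cm) for postemergence spraying, or to 2-leaf stage for the paddy test. Formulated compound is applied. Greenhouse holding lasts 13–15 days. Response is scored visually relative to controls, 0 no effect to 100 complete control; a dash means no result.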

wheat = assay: Test B postemergence herbicide test; assay type: in vivo, Triticum aestivum; parameters: key to Wheat plant response rating: 0 = no effect, 100 = complete control; details: scale 0 (no effect) to 100 (complete control)
In short: as §4

wild oat = assay: Test B postemergence herbicide test; assay type: in vivo, Avena fatua; details: scale 0 (no effect) to 100 (complete control)
In short: as §4

rice [12] = assay: Test B flooded paddy test; assay type: in vivo, Oryza sativa; details: 1000 g ai/ha, visual rating, scale 0 to 100 (0 no effect, 100 complete control), 13 to 15 days
In short: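 Paddy species grown to the 2-leaf stage under flooding; blackgrass sprayed postemergence at 2–18 cm (1- to 4-leaf stage). Plants kept in a greenhouse for 13 to 15 days, then visually rated against controls on 0 (no effect) to 100 (complete control).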

[13] = tested on: small flower umbrella sedge; assay: Test B flooded paddy test; assay type: in vivo, Cyperus difformis; details: 1000 g ai/ha, visual rating, scale 0 to 100 (0 no effect, 100 complete control), 13 to 15 days
In short: as §4

ducksalad = assay: Test B flooded paddy test; assay type: in vivo, Heteranthera limosa; details: 1000 g ai/ha, visual rating, scale 0 to 100 (0 no effect, 100 complete control), 13 to 15 days
In short: as §4

barnyardgrass [14] = assay: Test B flooded paddy test; assay type: in vivo, Echinochloa crus-galli; details: 1000 g ai/ha, visual rating, scale 0 to 100 (0 no effect, 100 complete control), 13 to 15 days
In short: as §4

[15] = Postemergence, 500 g ai/ha, 0 to 100 scale, 0 no effect, 100 complete control
[16] = Postemergence, 2000 g ai/ha, 0 to 100 scale, 0 no effect, 100 complete control
[17] = Preemergence, 500 g ai/ha, visual rating, 0 to 100 scale (0 no effect, 100 complete control)
[18] = Preemergence, 2000 g ai/ha, 0 to 100 scale, 0 no effect, 100 complete control
[19] = 500 g ai/ha, visual rating 0-100, 0 no effect, 100 complete control, preemergence
[20] = Postemergence, 500 g ai/ha, visual rating after 13 to 15 days, scale 0 (no effect) to 100 (complete control)
[21] = postemergence, 125 g ai/ha, visual rating, scale 0 (no effect) to 100 (complete control)
[22] = preemergence, 125 g ai/ha, 0 to 100 scale, 0 is no effect, 100 is complete control
[23] = Postemergence, 500 g ai/ha, visual rating after 13 to 15 days
[24] = postemergence, 125 g ai/ha, visual rating

With `CCn1nc(C(C)(C)C)cc1C(=O)Nc1cccc(C(=O)OC(C)C)c1C` [Compound 92] as the compound, how does the “Barnyardgrass plant response rating” value (barnyardgrass [1]; [15]) read?
The value was 0.

What about the “Plant response rating, Barnyardgrass” value (barnyardgrass [1]; [16]) of the same compound?
The value was 0.

And the “Barnyardgrass plant response rating” value (barnyardgrass [1]; [17])?
The value was 0.

And the “Barnyardgrass plant response rating” value (barnyardgrass [1]; [18])?
The value was 0.

What about the “Crabgrass, Large plant response rating” value (large crabgrass [2]; [15]) of the same compound?
Its value is 0.

What about the “Plant response rating, Crabgrass, Large” value (large crabgrass [2]; [16]) of the same compound?
The value was 10.

What about the “Crabgrass, Large plant response rating” value (large crabgrass [2]; [17]) of the same compound?
The value was 0.

And the “Crabgrass, Large plant response rating” value (large crabgrass [2]; [18])?
The value was 0.

And the “Foxtail, Giant plant response rating” value (giant foxtail [3]; [15])?
Its value is 0.

And the “Plant response rating, Foxtail, Giant” value (giant foxtail [3]; [16])?
Its value is 0.

What about the “Foxtail, Giant plant response rating” value (giant foxtail [3]; [17]) of the same compound?
Its value is 0.

What about the “Foxtail, Giant plant response rating” value (giant foxtail [3]; [18]) of the same compound?
The value was 0.

And the “Morningglory plant response rating” value (morningglory [4]; [15])?
Its value is 0.

What about the “Plant response rating, Morningglory” value (morningglory [4]; [16]) of the same compound?
Its value is 0.

And the “Morningglory plant response rating” value (morningglory [4]; [17])?
The value was 0.

What about the “Morningglory plant response rating” value (morningglory [4]; [18]) of the same compound?
The value was 0.

And the “Pigweed plant response rating” value (redroot pigweed; [15])?
Its value is 0.

What about the “Plant response rating, Pigweed” value (redroot pigweed; [16]) of the same compound?
The value was 0.

What about the “Pigweed plant response rating” value (redroot pigweed; [17]) of the same compound?
The value was 0.

And the “Pigweed plant response rating” value (redroot pigweed; [18])?
Its value is 35.

And the “Velvetleaf plant response rating” value (velvetleaf [5]; [15])?
Its value is 0.

And the “Plant response rating, Velvetleaf” value (velvetleaf [5]; [16])?
The value was 0.

And the “Velvetleaf plant response rating” value (velvetleaf [5]; [17])?
Its value is 0.

And the “Velvetleaf plant response rating” value (velvetleaf [5]; Preemergence, 2000 g ai/ha, visual rating, 0 to 100 scale (0 no effect, 100 complete control))?
The value was 0.

What about the “Plant response rating, Barnyardgrass” value (barnyardgrass [6]; [19]) of the same compound?
The value was 0.

And the “Plant response rating, Barnyardgrass” value (barnyardgrass [6]; [20])?
The value was 0.

What about the “Barnyardgrass plant response rating” value (barnyardgrass [6]; [21]) of the same compound?
Its value is 0.

And the “Plant response rating, Barnyardgrass” value (barnyardgrass [6]; [22])?
Its value is 0.

What about the “Plant response rating, Surinam Grass” value (Surinam grass; [19]) of the same compound?
The value was 0.

What about the “Plant response rating, Surinam Grass” value (Surinam grass; [20]) of the same compound?
Its value is 10.

And the “Surinam Grass plant response rating” value (Surinam grass; [21])?
The value was 0.

What about the “Plant response rating, Surinam Grass” value (Surinam grass; [22]) of the same compound?
Its value is 0.

What about the “Plant response rating, Cocklebur” value (cocklebur; [19]) of the same compound?
Its value is 0.

What about the “Plant response rating, Cocklebur” value (cocklebur; [20]) of the same compound?
The value was 0.

What about the “Cocklebur plant response rating” value (cocklebur; [21]) of the same compound?
The value was 0.

And the “Plant response rating, Cocklebur” value (cocklebur; [22])?
The value was 0.

What about the “Plant response rating, Corn” value (corn; [19]) of the same compound?
The value was 0.

What about the “Plant response rating, Corn” value (corn; [20]) of the same compound?
The value was 10.

What about the “Corn plant response rating” value (corn; [21]) of the same compound?
The value was 10.

What about the “Plant response rating, Corn” value (corn; [22]) of the same compound?
Its value is 0.

And the “Plant response rating, Crabgrass, Large” value (large crabgrass [7]; [19])?
The value was 10.

And the “Plant response rating, Crabgrass, Large” value (large crabgrass [7]; [20])?
Its value is 10.

And the “Crabgrass, Large plant response rating” value (large crabgrass [7]; [21])?
The value was 0.

What about the “Plant response rating, Crabgrass, Large” value (large crabgrass [7]; [22]) of the same compound?
Its value is 0.

And the “Plant response rating, Foxtail, Giant” value (giant foxtail [8]; [19])?
The value was 10.

What about the “Plant response rating, Foxtail, Giant” value (giant foxtail [8]; [20]) of the same compound?
The value was 0.

What about the “Foxtail, Giant plant response rating” value (giant foxtail [8]; [21]) of the same compound?
Its value is 0.

What about the “Plant response rating, Foxtail, Giant” value (giant foxtail [8]; [22]) of the same compound?
Its value is 0.

What about the “Plant response rating, Lambsquarters” value (lambsquarters; [19]) of the same compound?
Its value is 0.

And the “Plant response rating, Lambsquarters” value (lambsquarters; [20])?
Its value is 20.

And the “Lambsquarters plant response rating” value (lambsquarters; [21])?
Its value is 20.

And the “Plant response rating, Lambsquarters” value (lambsquarters; [22])?
The value was 0.

What about the “Plant response rating, Morningglory” value (morningglory [9]; [19]) of the same compound?
Its value is 0.

What about the “Plant response rating, Morningglory” value (morningglory [9]; [20]) of the same compound?
Its value is 0.

What about the “Morningglory plant response rating” value (morningglory [9]; [21]) of the same compound?
The value was 0.

What about the “Plant response rating, Morningglory” value (morningglory [9]; [22]) of the same compound?
Its value is 0.

What about the “Plant response rating, Pigweed” value (pigweed; [19]) of the same compound?
Its value is 0.

What about the “Plant response rating, Pigweed” value (pigweed; [20]) of the same compound?
Its value is 10.

And the “Pigweed plant response rating” value (pigweed; [21])?
Its value is 0.

And the “Plant response rating, Pigweed” value (pigweed; [22])?
The value was 0.

What about the “Plant response rating, Rice” value (rice [10]; 500 g ai/ha, visual rating 0-100, 0 no effect, 100 complete control) of the same compound?
Its value is 0.

And the “Plant response rating, Rice” value (rice [10]; 125 g ai/ha, 0 to 100 scale, 0 is no effect, 100 is complete control)?
Its value is 0.

What about the “Plant response rating, Velvetleaf” value (velvetleaf [11]; [19]) of the same compound?
Its value is 0.

What about the “Plant response rating, Velvetleaf” value (velvetleaf [11]; [20]) of the same compound?
Its value is 0.

And the “Velvetleaf plant response rating” value (velvetleaf [11]; [21])?
The value was 0.

What about the “Plant response rating, Velvetleaf” value (velvetleaf [11]; [22]) of the same compound?
The value was 0.

And the “Plant response rating, Blackgrass” value (blackgrass; [23])?
Its value is 0.

What about the “Blackgrass plant response rating” value (blackgrass; [24]) of the same compound?
Its value is 0.

And the “Plant response rating, Wheat” value (wheat; [23])?
The value was 0.

What about the “Wheat plant response rating” value (wheat; [24]) of the same compound?
The value was 0.

And the “Plant response rating, Oat, Wild” value (wild oat; [23])?
The value was 0.

What about the “Oat, Wild plant response rating” value (wild oat; [24]) of the same compound?
Its value is 0.

And the “Rice plant response rating” value (rice [12])?
The value was 0.

What about the “Sedge, Umbrella plant response rating” value [13] of the same compound?
The value was 0.

What about the “Ducksalad plant response rating” value (ducksalad) of the same compound?
Its value is 0.

And the “Barnyardgrass plant response rating” value (barnyardgrass [14])?
Its value is 0.
